Converted amounts (≈) assume the structure as drawn. Blank lines part the entries; values can stand above or below the compound they belong to.
Columns and labels:
[1] = Approximate solubility of Compound 5 polymorphs in EtOH:DCM (v:v=1:4); type: physicochemical; details: 25° C.; for Approximate solubility (visual appearance): EtOH:DCM (v:v = 1:4)
Protocol: Four polymorphs (Form V, Form VI, Form VII and Form VIII) were weighed respectively and a suitable amount of solvent mixture EtOH:DCM (v:v=1:4) was added. The obtained samples were stirred at a rate of 400 rpm at 25° C.

[2] = Bulk stability of Compound 5 Form VI and Form VIII at 25° C./60% RH, open container, 1 week (XRPD, HPLC, color); type: physicochemical
Protocol: Compound 5 Form VI and Form VIII were placed at 25° C./60% RH in an open container over 1 week. Samples after the stress were characterized by XRPD and HPLC and inspected for color change.

[3] = Solubility of Compound 5 Form VI and Form VIII at 25° C., equilibration for 24 hours (HPLC; XRPD of residual solids); type: physicochemical
Protocol: 11 mg (for 20 mg/mL target concentration) or 22 mg (for 50-60 mg/mL target concentration) of Compound 5 Form VI and Form VIII (equivalent to 10 mg or 20 mg of anhydrate free base) was weighed into a 4 mL glass vial, respectively. Up to 0.5 mL of potential eluent medium was added. The obtained suspensions/solutions were stirred at 25° C. at 400 rpm for 24 hours and then centrifuged at 25° C. at 14,000 rpm for 5 minutes. The residual solids were characterized by XRPD to determine the physical form. The supernatants (0.1 mL) were evaporated at about 22-25° C./30-60% RH.

[4] = Characterization of polymorphs and pseudo-polymorphs of Compound 5; type: physicochemical
[5] = Approximate solubility of Compound 5 Form V at 25° C. (visual observation / HPLC); type: physicochemical; details: for solubility: solubilized at about 25° C.
Protocol: About 5 mg of Compound 5 Form V was weighed to an 8 mL glass vial. 100 μL aliquots of each solvent were added to dissolve the drug substance at 25° C. Vortex and sonication were applied to assist dissolution. The maximum volume of each solvent added is 1 mL. Approximate solubility was determined by visual observation.
For low solubility samples: Aliquots of selected solvent were added to 5 mg of Compound 5 create a suspension. The suspensions were kept at 25° C. for 24 hours. The suspension was taken out and centrifuged. To eliminate solvent effect, 50 μL or 100 μL of supernatant was added into a 2 mL glass vial and evaporated at ambient condition (22-25° C., 30-60% RH).

[6] = Equilibration of Compound 5 Form V with solvents at 25° C. for 1 week (XRPD); type: physicochemical
Protocol: The obtained suspensions were centrifuged at 14,000 rpm. The solid parts (wet cakes) were investigated by XRPD.

[7] = Crystallization of Compound 5 at room temperature by fast evaporation; type: physicochemical
Protocol: Based on approximate solubility results, about 20 mg of Compound 5 Form V was dissolved in 1-6 mL of solvents. […] The solid residue was investigated by XRPD. For samples with different XRPD patterns, ^1H-NMR was performed.

[8] = Crystallization of Compound 5 from hot saturated solutions by fast cooling; type: physicochemical; details: fast cooling to about 0° C.
Protocol: Based on approximate solubility results, about 30 mg of Compound 5 Form V was dissolved in a minimal amount of selected solvent at 50° C. […] No precipitate came out by fast cooling.

[9] = Crystallization of Compound 5 by addition of anti-solvent; type: physicochemical
Protocol: The obtained solutions were filtered through a 0.45 μm syringe membrane filter. […] Precipitates were investigated by XRPD. For samples with different XRPD patterns, ^1H-NMR was performed.

[10] = system: relapsed/refractory (r/r) MCL; details: r/r subjects with MCL following bortezomib; cited from earlier work
[11] = THF/Heptane (v:v = 1:2), 25° C., 24 hours, target conc. 20 mg/mL
[12] = THF/water (v:v = 1:2.5), 25° C., 24 hours, target conc. 20 mg/mL, listed as Form VI

Approximate solubility (visual appearance) ([1]; concentration 10 mg/mL, listed as Form VI): Suspension
Approximate solubility (visual appearance) ([1]; concentration 20 mg/mL, listed as Form VI): Suspension
approximate solubility compared with Form V and Form VII ([1]; EtOH:DCM (v:v=1:4), visual observation): higher solubility
bulk stability, chemical [2]: chemically stable
bulk stability, physical (form) ([2]; listed as Form VI): good physical stability
Bulk (HPLC) Purity ([2]; solid state, initial purity 93.1% (Form VI), 95.6% (Form VIII), listed as Form VI): 93.1%
Bulk (XRPD) ([2]; solid state, listed as Form VI): Form VI
solubility ([3]; EtOH/DCM (v:v = 1:4), 25° C., 24 hours, target conc. 50-60 mg/mL, LOQ 0.8 μg/mL, listed as Form VI): 27000 µg/mL (≈ 57.5 mM)
solubility ([3]; MeOH/DCM (v:v = 1:2), 25° C., 24 hours, target conc. 50-60 mg/mL, LOQ 0.8 μg/mL): 30000 µg/mL (≈ 63.9 mM)
physical form after solubility test ([3]; MeOH:DCM (v:v=1:2) and EtOH:DCM (v:v=1:4), 25° C., 24 h): converted to almost the amorphous form
XRPD of residual solids [3, 11]: Form VI
solubility [3, 11]: 100 µg/mL (≈ 0.213 mM)
XRPD of residual solids ([3]; THF/IPA (v:v = 1:2), 25° C., 24 hours, target conc. 20 mg/mL): Form VI
solubility ([3]; THF/IPA (v:v = 1:2), 25° C., 24 hours, target conc. 20 mg/mL, listed as Form VI): 900 µg/mL (≈ 1.92 mM)
XRPD of residual solids [3, 12]: Form VI
solubility [3, 12]: 4000 µg/mL (≈ 8.52 mM)
physical form after solubility test ([3]; THF:2-propanol (v:v=1:2), THF:Heptane (v:v=1:2) and THF:water (v:v=1:2.5), 25° C., 24 h): no form change
solubility ([3]; in EtOH/DCM (v:v=1:4), about 25° C., 24 h, listed as Form VI): ~27000 µg/mL (≈ 57.5 mM)
solubility ([3]; in MeOH/DCM (v:v=1:2), about 25° C., 24 h): about 30 mg/mL
solubility ([3]; in MeOH:DCM (v:v=1:2) and EtOH:DCM (v:v=1:4), 25° C. for 24 h, listed as Form VI): ~30000 µg/mL (≈ 63.9 mM)
solubility ([3]; in THF:IPA (v:v=1:2), THF:Heptane (v:v=1:2) and THF:Heptane (v:v=1:2.5), 25° C. for 24 h): ~1000 µg/mL (≈ 2.13 mM)
Evaporation of solvent from (by DSC) ([4]; DSC): about 154° C.;
Dehydration (by DSC) ([4]; DSC, listed as Form VI): about 6° C.;
Enthalpy (by DSC) ([4]; DSC, listed as Form VI): 35 J/g
Melting onset Tonset (by DSC) ([4]; DSC, listed as Form VI): Tonset 226.4° C.,
Weight loss (by TGA) ([4]; at 215° C.): 9.7% at 215 °C
Residual ion (by IC): Br− ([4]; listed as Form VI): Br^−: 0.22 equiv.
Residual ion (by IC): Cl− ([4]; listed as Form VI): Cl^−: 0.08 equiv.;
Residual ion (by IC): Li+ ([4]; listed as Form VI): Li^+: 0.17 equiv.;
Residual ion (by IC): Na+ ([4]; listed as Form VI): Na+: 0.02 equiv.
SMILES: O=C1CCC(N2C(=O)c3cccc4c(Cc5ccc(CN6CCOCC6)cc5)ccc2c34)C(=O)N1 (racemic) [Compound 5 Form VI]

Solubility (mg/mL) at 25° C. ([5]; 1,4-Dioxane, tested by HPLC): 2.3 mg/mL (≈ 4.9 mM)
Solubility (mg/mL) at 25° C. ([5]; 1-Methyl-2-pyrrolidinone, tested by observation): >50 mg/mL
Solubility (mg/mL) at 25° C. ([5]; 2-Me THF, tested by HPLC): 0.2 mg/mL (≈ 0.426 mM)
Solubility (mg/mL) at 25° C. ([5]; Acetic acid, tested by HPLC): 5.5 mg/mL (≈ 11.7 mM)
Solubility (mg/mL) at 25° C. ([5]; Acetone, tested by HPLC): 3.3 mg/mL (≈ 7.03 mM)
Solubility (mg/mL) at 25° C. ([5]; Acetonitrile, tested by HPLC): 2.2 mg/mL (≈ 4.69 mM)
Solubility (mg/mL) at 25° C. ([5]; Anisole, tested by HPLC): 1.1 mg/mL (≈ 2.34 mM)
Solubility (mg/mL) at 25° C. ([5]; Benzyl alcohol, tested by observation): 12 to 25 mg/mL
Solubility (mg/mL) at 25° C. ([5]; Chloroform, tested by observation): 5 to 10 mg/mL
Solubility (mg/mL) at 25° C. ([5]; DMF, tested by observation): 25 to 50 mg/mL
Solubility (mg/mL) at 25° C. ([5]; DMSO, tested by observation): >50 mg/mL
Solubility (mg/mL) at 25° C. ([5]; Ethanol, tested by HPLC): 0.6 mg/mL (≈ 1.28 mM)
Solubility (mg/mL) at 25° C. ([5]; Ethyl acetate, tested by HPLC): 0.1 mg/mL (≈ 0.213 mM)
Solubility (mg/mL) at 25° C. ([5]; MeOH/DCM (v:v = 1:1), tested by observation): ~5 mg/mL (≈ 10.6 mM)
Solubility (mg/mL) at 25° C. ([5]; Methanol, tested by HPLC): 0.2 mg/mL (≈ 0.426 mM)
Solubility (mg/mL) at 25° C. ([5]; Propylene glycol methyl ether, tested by HPLC): 2.3 mg/mL (≈ 4.9 mM)
Solubility (mg/mL) at 25° C. ([5]; Propylene glycol, tested by HPLC): 3.4 mg/mL (≈ 7.24 mM)
Solubility (mg/mL) at 25° C. ([5]; Pyridine, tested by observation): 25 to 50 mg/mL
Solubility (mg/mL) at 25° C. ([5]; THF, tested by HPLC): 3.8 mg/mL (≈ 8.09 mM)
Solubility (mg/mL) at 25° C. ([5]; Toluene, tested by HPLC): 0.2 mg/mL (≈ 0.426 mM)
Solubility (mg/mL) at 25° C. ([5]; Trifluoroethanol, tested by observation): 25 to 50 mg/mL
solubility ([5]; in 1-methyl-2-pyrrolidinone): at least 50 mg/mL
solubility ([5]; in DMSO): at least 50 mg/mL
XRPD ([6]; equilibration in Acetone): Form V
XRPD ([6]; equilibration in Benzyl alcohol): Form V
XRPD ([6]; equilibration in Chloroform): Form V
XRPD ([6]; equilibration in DMF): Form V
XRPD ([6]; equilibration in MeOH/DCM (v:v = 1:1)): Form V
XRPD ([6]; equilibration in Pyridine, wet cake): Form V
XRPD ([6]; equilibration in THF): Form V
XRPD ([6]; equilibration in Trifluoroethanol): Form V
XRPD ([7]; fast evaporation from 1-Methyl-2-pyrrolidinone): Form VII
XRPD ([7]; fast evaporation from Benzyl alcohol): Form V
XRPD ([7]; fast evaporation from Chloroform): Amorphous form
XRPD ([7]; fast evaporation from DMSO, room temperature, dry nitrogen flow): Form VI
XRPD ([7]; fast evaporation from THF): Form V
Additional analysis (appearance of residue) ([7]; fast evaporation from Trifluoroethanol): Oil
Additional analysis 1H-NMR: DMSO ([7]; residue (Form VI) of fast evaporation from DMSO): ^1H-NMR: 0.4 equiv. DMSO
Additional analysis 1H-NMR: NMP ([7]; residue (Form VII) of fast evaporation from 1-Methyl-2-pyrrolidinone, 2 unknown peaks): ^1H-NMR: 1.6 equiv. NMP;
Comments ([8]; 1-Methyl-2-pyrrolidinone, 50° C.): Clear solution
Comments ([8]; Acetone, dissolved at 50° C.): Clear solution
Comments ([8]; Benzyl alcohol, 50° C.): Clear solution
Comments ([8]; Chloroform, 50° C.): Clear solution
Comments ([8]; DMF, 50° C.): Clear solution
Comments ([8]; Pyridine, 50° C.): Clear solution
Comments ([8]; THF, 50° C.): Clear solution
Comments ([8]; Trifluoroethanol, 50° C.): Clear solution
Additional analysis 1H-NMR: DMF ([9]; precipitate (Form VIII) from DMF(1.0 mL)/H2O (2.0 mL)): 2 equiv. DMF
XRPD ([9]; solvent DMF(1.0 mL), anti-solvent H2O (2.0 mL)): Form VIII
Approximate solubility (visual appearance) ([1]; concentration 5 mg/mL): Suspension
Approximate solubility (visual appearance) ([1]; concentration 10 mg/mL, listed as Form V): Suspension
Approximate solubility (visual appearance) ([1]; concentration 20 mg/mL, listed as Form V): Suspension
Residual solvent (by 1H-NMR): THF [4]: 0.4% residual of
Endothermic onset (by DSC) ([4]; DSC): onset at 220.0 °C
Dehydration (by DSC) ([4]; DSC, listed as Form V): Tonset 38.5° C.;
Crystallinity (by XRPD) ([4]; XRPD method 2): Crystalline
Weight loss (by TGA) ([4]; at 140° C.): 5.1% at 140 °C
SMILES: O=C1CCC(N2C(=O)c3cccc4c(Cc5ccc(CN6CCOCC6)cc5)ccc2c34)C(=O)N1 (racemic) [Compound 5 Form V]

SMILES: Nc1cccc2c1CN(C1CCC(=O)NC1=O)C2=O (centres unmarked) [lenalidomide]
median duration of response [DOR] [10]: 16.6 months
overall response rate [ORR] [10]: 28%

— patent US20240391912A1, “MORPHIC FORMS OF CFT7455 AND METHODS OF MANUFACTURE THEREOF” (C4 THERAPEUTICS, INC., priority 2022, published 2024)
